According to ChEMBL document CHEMBL1201862, “PubChem BioAssay data set” (2004):
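How tested: cells in 96-well plates exposed to compound for 48 hours at five concentrations. GI50 marks 50% less growth.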 Active and inactive are the calls of the source. Cut-off read from the data, not from the text of the source: active = GI50 up to about 1.1 µM and inactive = higher.

What was measured:
Experiment in all cases: NCI-60 cell line screen, 48 h
[1] = tested on: RXF 393
[2] = tested on: CAKI-1
[3] = tested on: LOX IMVI
[4] = tested on: OVCAR-3
[5] = tested on: SF-539
[6] = tested on: M14
[7] = tested on: MOLT-4
[8] = tested on: ACHN
[9] = tested on: SN12C
[10] = tested on: RPMI-8226
[11] = tested on: IGROV-1
[12] = tested on: NCI-H460
[13] = tested on: SNB-78
[14] = tested on: DLD-1
[15] = tested on: UACC-257
[16] = tested on: M19-MEL
[17] = tested on: U-251
[18] = tested on: OVCAR-8
[19] = tested on: SNB-75
[20] = tested on: HOP-18
[21] = tested on: CCRF-CEM
[22] = tested on: HL-60
[23] = tested on: HCT-116
[24] = tested on: SNB-19
[25] = tested on: SF-295
[26] = tested on: KM-20L2
[27] = tested on: DMS-273
[28] = tested on: COLO 205
[29] = tested on: EKVX
[30] = tested on: HCT-15
[31] = tested on: HCC 2998
[32] = tested on: TK-10
[33] = tested on: A549
[34] = tested on: OVCAR-4
[35] = tested on: HT-29
[36] = tested on: SK-MEL-28
[37] = tested on: SW-620
[38] = tested on: SK-MEL-5
[39] = tested on: NCI-H23
[40] = tested on: XF498
[41] = tested on: A498
[42] = tested on: 786-0
[43] = tested on: RXF 631
[44] = tested on: LXFL 529
[45] = tested on: UACC-62
[46] = tested on: HOP-62
[47] = tested on: DMS-114
[48] = tested on: SK-OV-3
[49] = tested on: OVCAR-5
[50] = tested on: NCI-H226
[51] = tested on: HOP-92
[52] = tested on: K562
[53] = tested on: SK-MEL-2
[54] = tested on: SF-268
[55] = tested on: Malme-3M
[56] = tested on: UO-31
[57] = tested on: KM12

COc1ccc2c(c1OCC(=O)O)C(=O)C(CCC(=O)O)CC2 (stereo not given)
GI50 [1]: > 100 µM (inactive)
GI50 [2]: > 100 µM (inactive)
GI50 [3]: > 100 µM (inactive)
GI50 [4]: > 100 µM (inactive)
GI50 [5]: > 100 µM (inactive)
GI50 [6]: > 100 µM (inactive)
GI50 [7]: > 100 µM (inactive)
GI50 [8]: > 100 µM (inactive)
GI50 [9]: > 100 µM (inactive)
GI50 [10]: > 100 µM (inactive)
GI50 [11]: > 100 µM (inactive)
GI50 [12]: > 100 µM (inactive)
GI50 [13]: > 100 µM (inactive)
GI50 [14]: > 100 µM (inactive)
GI50 [15]: > 100 µM (inactive)
GI50 [16]: > 100 µM (inactive)
GI50 [17]: > 100 µM (inactive)
GI50 [18]: > 100 µM (inactive)
GI50 [19]: > 100 µM (inactive)
GI50 [20]: > 100 µM (inactive)
GI50 [21]: > 100 µM (inactive)
GI50 [22]: > 100 µM (inactive)
GI50 [23]: > 100 µM (inactive)
GI50 [24]: > 100 µM (inactive)
GI50 [25]: > 100 µM (inactive)
GI50 [26]: > 100 µM (inactive)
GI50 [27]: > 100 µM (inactive)
GI50 [28]: > 100 µM (inactive)
GI50 [29]: > 100 µM (inactive)
GI50 [30]: > 100 µM
GI50 [31]: > 100 µM (inactive)
GI50 [32]: > 10 µM (inactive)
GI50 [33]: > 100 µM (inactive)
GI50 [34]: > 100 µM (inactive)
GI50 [35]: > 100 µM (inactive)
GI50 [36]: > 100 µM (inactive)
GI50 [37]: > 100 µM (inactive)
GI50 [38]: > 100 µM (inactive)
GI50 [39]: > 100 µM (inactive)
GI50 [40]: 71.1 µM (inactive)
GI50 [41]: > 100 µM (inactive)
GI50 [42]: > 100 µM (inactive)
GI50 [43]: > 100 µM (inactive)
GI50 [44]: > 100 µM (inactive)
GI50 [45]: > 100 µM (inactive)
GI50 [46]: > 100 µM (inactive)
GI50 [47]: > 100 µM (inactive)
GI50 [48]: > 100 µM (inactive)

O=C1C(=O)N(C2C3CC4CC(C3)CC2C4)C(=O)C(=O)C1c1nc2ccccc2o1 (stereo not given)
GI50 [1]: 70 µM (inactive)
GI50 [2]: > 100 µM (inactive)
GI50 [3]: > 100 µM (inactive)
GI50 [4]: 25.1 µM (inactive)
GI50 [5]: 90.6 µM (inactive)
GI50 [6]: 83 µM (inactive)
GI50 [49]: 23.2 µM (inactive)
GI50 [8]: > 100 µM (inactive)
GI50 [50]: > 100 µM (inactive)
GI50 [9]: 98.4 µM (inactive)
GI50 [10]: 52.4 µM (inactive)
GI50 [11]: 42.3 µM (inactive)
GI50 [51]: 61.1 µM (inactive)
GI50 [12]: > 100 µM (inactive)
GI50 [13]: > 100 µM (inactive)
GI50 [52]: 21.1 µM (inactive)
GI50 [14]: 37.3 µM (inactive)
GI50 [15]: 26.1 µM (inactive)
GI50 [16]: 55 µM (inactive)
GI50 [17]: 23.1 µM (inactive)
GI50 [18]: > 100 µM (inactive)
GI50 [19]: 33.1 µM (inactive)
GI50 [20]: 54.2 µM (inactive)
GI50 [23]: 37 µM (inactive)
GI50 [24]: > 100 µM (inactive)
GI50 [25]: > 100 µM (inactive)
GI50 [26]: 82 µM (inactive)
GI50 [27]: > 100 µM (inactive)
GI50 [28]: 51.6 µM (inactive)
GI50 [53]: > 100 µM (inactive)
GI50 [29]: > 100 µM (inactive)
GI50 [54]: 92.9 µM (inactive)
GI50 [30]: 43.6 µM
GI50 [55]: 36 µM (inactive)
GI50 [31]: 57.5 µM (inactive)
GI50 [32]: > 100 µM (inactive)
GI50 [56]: > 100 µM (inactive)
GI50 [33]: > 100 µM (inactive)
GI50 [34]: > 100 µM (inactive)
GI50 [57]: > 100 µM (inactive)
GI50 [35]: 20.7 µM (inactive)
GI50 [36]: > 100 µM (inactive)
GI50 [37]: 55 µM (inactive)
GI50 [39]: 41.6 µM (inactive)
GI50 [40]: 74 µM (inactive)
GI50 [42]: 26.3 µM (inactive)
GI50 [43]: > 100 µM (inactive)
GI50 [44]: 46.9 µM (inactive)
GI50 [45]: > 100 µM (inactive)
GI50 [46]: > 100 µM (inactive)
GI50 [47]: 19.4 µM (inactive)
GI50 [48]: > 100 µM (inactive)
